Experimental data as given in patent US7569221B2, “Compositions and methods for identifying agents that alter expression of survivin” (Health Research, Inc., priority 2006, dated 2009).

Tests used:
human survivin promoter [1] = test: in vivo luciferase imaging of SPlucTg mice during liver injury and regeneration after CCl4; design: species or system mouse
Protocol: FIG. 20 is a photographic representation (obtained using the XENOGEN IVIS® in vivo Imaging System) of dose-dependent transient turn-on of survivin promoter activity during SPlucTg mouse liver injury and regeneration using carbon tetrachloride (CCl4): A 10% of CCl4 solution formulated in corn oil was prepared. The following dose was injected intraperitoneally on Day 0: 50 μl/25 g (panel A), 100 μl/25 g (panel B), 200 μl/25 g (panel C) and 300 μl/25 g (panel D). The in vivo imaging was monitored on Day 1 (24 h), Day 2 (48 h), Day 3 (72 h), Day 4 (96 h) and Day 6 (144 h) after administration of CCl4 (arrows indicate luciferase expression). […]
(§1) Using a survivin-specific monoclonal antibody termed 12C4, we have recently shown that testis is the only human organ that highly expresses survivin (60-70% of spermatogonia) (19). Consistent with this observation, luciferase activity in SPlucTg mice was detected only in the testis of male mice but not in female mice (founder, F1 and F2). […]
Based on this observation, we tested whether we could observe luciferase activity during mouse liver regeneration after injury. […] Importantly, the mouse liver injury and luciferase activity monitored by in vivo imaging is CCl4 dose-dependent, which provides a novel basis for testing compound-induced tissue injury/toxicity.

human survivin promoter [2] = test: luciferase activity assay in cancer cell clones stably transfected with pNeoHScyc4.08-luc; format: cell-based
Protocol: Methods for transfection, G418 selection, single clone isolation and amplification: Cells were first tested for G418 resistance with a series of G418 concentrations. For transfection, cells were seeded in a 6-well cell culture plate, one day before transfection, to a cell concentration in which cell would grow into 40-70% confluence on the second day for transfection. Cells were transfected with the Sal I-linearized pNeoHScyc4.08-luc or pNeoHS4.04-luc using LIPOFECTAMINE™ 2000 (INVITROGEN). Briefly, 1-2 μg (dependent on cell transfection efficiency) of the linearized plasmid DNA in 100 μl serum-free DMEM were mixed with 1.5-3 μl Lipofectamine™ 2000 in 100 μl serum-free DMEM in a 1.5-ml tube for each well of 6-well plates. After incubation at room temperature for 20-25 minutes, the DNA/Lipofectamine™ 2000 mixture was added to each well containing 500 μl serum-free DMEM medium in the 6-well plate. […]
Methods for measuring luciferase activity and isolation of the correct cell clones: For luciferase assays, the Luciferase Reporter Assay System (PROMEGA) was used. […] Luciferase activity for each cell clones was determined every 4-5 sub-culture/passing. […]
Therefore, we used Hedamycin as a positive control to test our genetically modified cancer cell models. […] After cells were treated with 10 nM hedamycin for 16-24 hours, cells were lysed and luciferase activity was measured as described above. […]

cancer cells = test: cell death of treated cancer cells; format: cell-based
survivin [3] = test: survivin expression and survivin promoter activity in cancer cells (earlier work); format: cell-based, human; conditions: binds to the survivin promoter
survivin [4] = conditions: cancer cells; reference 15; cited from earlier work
human survivin promoter [5] = test: in vivo luciferase imaging of castrated SPlucTg male mice after androgen treatment; design: species or system mouse; conditions: testosterone pills imbedded 14 days after castration, seen on Day 11 and Day 14 post pill
Source text: FIG. 19 is a photographic representation (obtained using the XENOGEN IVIS® in vivo Imaging System) of transient turn-on of survivin promoter activity by imbedding testosterone pills in castrated SPlucTg mice: Testosterone pills were imbedded in the back of the neck of SPlucTg mice (an example shown here is the F1 5556m derived from 5196m founder) 14 days after castration (prostate tissue shrinking to the minimal size by apoptosis in the 14 days). After testosterone pill implantation, luciferase activity was monitored using in vivo imaging.
Generation of SPlucTg mice: The targeting construct, pHScyc4.08-luc, was digested with Sal I and Sac I to isolate the 8.5 kb transgene cassette (HScyc4.08-luc) from the bacterial plasmid backbone (see FIG. 2). […] Cesium chloride-purified HScyc4.08-luc DNA was microinjected into the pronuclei of day-0.5 embryos of C57BL/6 mice. Injected embryos were implanted into the oviducts of pseudo-pregnant female Swiss Webster mice. […]
as §1

ClC(Cl)(Cl)Cl [CCl4, carbon tetrachloride]
dose dependence of mouse liver injury and luciferase activity (human survivin promoter [1]; intraperitoneal CCl4, 50, 100, 200, 300 μl/25 g): dose-dependent
luciferase activity during liver regeneration by in vivo imaging (human survivin promoter [1]; intraperitoneal injection of 10% CCl4 in corn oil, 50-300 μl/25 g, Day 1-6): strong luciferase activity

CCOc1ccc(-c2nc3ccc(-c4nc5ccc(N6CCN(C)CC6)cc5[nH]4)cc3[nH]2)cc1 [Hoechst33342]
survivin promoter/luciferase activity (human survivin promoter [2]; 500 nM Hoechst33342 for 16-24 hours, A549, 2008, HCT116, PC-3 clones with pNeoHScyc4.08-luc (FIGS. 9-12)): upregulates survivin promoter/luciferase activity
cell death (cancer cells; 500 nM for 16-24 hours): does not result in significant cell death
survivin promoter activity and endogenous survivin gene expression (survivin [3]): upregulates the survivin promoter activity and endogenous survivin gene expression

Cc1cc2c(c3oc(C4(C)OC4C4OC4C)cc(=O)c13)C(=O)c1c(O)c(C3CC(C)(N(C)C)C(O)C(C)O3)cc(C3CC(N(C)C)C(O)C(C)O3)c1C2=O (stereo not shown) [hedamycin]
luciferase activity (human survivin promoter [2]; 10 nM hedamycin for 16-24 hours, A549, 2008, HCT116, PC-3 clones with pNeoHScyc4.08-luc (FIGS. 5-8)): significantly inhibited
cell death (cancer cells; 10 nM for 16-24 hours): do not show significant cell death
survivin expression and survivin promoter activity (survivin [4]): inhibits survivin expression and downregulates survivin promoter activity

C[C@]12CC[C@H]3[C@@H](CCC4=CC(=O)CC[C@@]43C)[C@@H]1CC[C@@H]2O [testosterone]
luciferase activity (survivin promoter activity) by in vivo imaging (human survivin promoter [5]): Transient induction of survivin promoter activity
luciferase activity (survivin promoter activity) by in vivo imaging (human survivin promoter [5]; listed as androgen): transient luciferase activity
